Laboratory results published in patent US8883856B2, “Compositions and methods for the treatment of inflammatory diseases using topoisomerase inhibitors” (priority 2000, dated 2014).
Read-outs that look alike come from different tables or passages of the source.

Tests used:
proteoglycan gene = assay: Proteoglycan gene expression in chondrocytes; assay type: cell-based, calf
Excerpt: This assay measures the levels of RNA for the two metalloproteinases, collagenase and stromelysin. Over-expression of these genes results in excessive synthesis and secretion of these two enzymes from articular chondrocytes and may represent part of the pathophysiology of rheumatoid arthritis. Agents that inhibit over-expression of collagenase and stromelysin can be antiarthritc agents. […] Proteoglycan gene expression is part of the normal physiology of chondrocytes.
Primary chondrocyte culture was freshly isolated from calf cartilage. The cells were plated (at 2.5×10^6/mL) in 100×20 mm culture dishes and incubated in Ham's F12 medium containing 5% fetal bovine serum (FBS) overnight at 37° C. The cells were starved with serum-free medium overnight. The cells were pretreated with camptothecin at concentrations of 10^−6 M, 10^−7 M and 10^−8 M for 6 hours. Then IL-1 (20 ng/mL) was added to each plate and the plates were incubated for an additional 18 hours. Total RNA was isolated by the acidified guanidine isothiocyanate method and subjected to electrophoresis on a denatured gel. Denatured RNA samples (15 ug) were analyzed by gel electrophoresis in a 1% denaturing gel, transferred to a nylon membrane, and hybridized respectively with the ^32P-labelled collagenase cDNA probe, ^32P-labelled stromelycin cDNA probe, ^32P-labelled proteoglycan cDNA probe and ^32P-labelled glyceraldehyde phosphate dehydrogenase (PAGDH) cDNA. The PAGDH levels acted as an internal standard to ensure roughly equal loading. The experimental results on X-ray films were scanned and analyzed with HP ScanJet.

[1] = system: chorioallantoic membrane of the chick embryo; assay: Angiogenesis in the chick chorioallantoic membrane (CAM assay); assay type: in vivo; conditions: for number of eggs (CAM's) with antiangiogenic activity None (score 0) / number of eggs (CAM's) with antiangiogenic activity Partial (score 1-2) / number of eggs (CAM's) with antiangiogenic activity Maximal (score 3): 48 hours
Excerpt: Sheets of sterile waxed paper were placed onto the window that was created in the air space and were used to prevent contamination and dehydration of the egg contents. These sheets, measuring 4 cm×4 cm, were sterilized by spraying them with 70% ethanol and allowing them to dry in the laminar flow hood. […] Using 70% ethanol and Kimwipes, the entire eggshell was wiped down to help clean and sanitize the outside of the egg. Inside a laminar flow hood, the egg was held with the blunt side up and a hole was made in the blunt end of the egg by carefully cracking the shell with the end of forceps. The shell remnants were gently removed with forceps to form a hole in the blunt end. This circular hole was made as large as 2 to 3 cm in diameter without damaging the inner membrane. Once the hole was created in the shell, the inner shell membrane (which houses the egg contents) was gently torn and removed using the forceps, taking care not to damage the chorioallantoic membrane (CAM) (which houses the yolk and developing chick embryo). The hole was then covered with the sheet of sterilized parafilm wax paper by gently stretching the parafilm and then placing it around the hole. The egg was then placed in the egg rack in the incubator (37° C.) and positioned in such a way as to prevent rotation. After 6 days each egg was removed one by one from the incubator (blunt side up), and the parafilm covering the window was removed for direct access to the CAM, which originates from the hind gut of the embryo. The drug-loaded polymer was placed onto the growing capillary bed of the CAM. The egg contents were then resealed with the parafilm sheet and placed back into the 37° C. incubator. […] The values of the avascular scale describe the following: […]

[2] = In vitro drug release from polymeric formulations; assay type: physicochemical
neutrophils = assay: Cytoplasmic DNA fragmentation in neutrophils (Cell death detection ELISA); assay type: cell-based, human
Excerpt: The inflammation associated with many forms of arthritis is thought to arise from the presence of large numbers of immune cells, such as neutrophils, in the synovial joints of humans. The extended inflammation associated with crystal induced arthritis arises from the interaction of neutrophils with crystals in the synovial joint. One reason the extended duration of the inflammation in this disease may be due to the inhibition of neutrophil apoptosis by crystals. This inhibition may result in the neutrophils remaining in the joint for extended periods. Compounds that overcome this crystal induced suppression of neutrophil apoptosis therefore allow the more rapid clearance of these cells from the joint with the appropriate abatement of inflammation. The process of apoptosis involves the endonuclease driven cleavage of DNA into fragments which may be visualized as a ladder of bands in an agarose gel electrophoresis experiment. Other assays that may be used include caspase 3 quantitation or measurements of cytoplasmic DNA concentration. […] Agents that inhibit caspase activation levels or reduce cytoplasmic DNA are pro-survival (potentially inflammatory) and agents that promote are pro-apoptotic and anti-inflammatory. The use of these methods and their role in neutrophil affected inflammation is described in detail in Tudan et al. J Rheumatol. 27 p 2463-72. 2000.
Methods: Agarose gel banding/laddering of 180 base pairs: Neutrophils were separated from fresh human blood by standard methods (dextran sedimentation and ficoll paque centrifugation) and suspended in buffer at a concentration of 1×10^6 cells/ml. The cells were then incubated with crystals of calcium pyrophosphate dihydrate (CPPD) for 1 hours at 37° C. The cells were then incubated with or without camptothecin (0.1 uM) for 4 hours at 37° C. Neutrophil aliquots (1×10^6 cells) from different conditions were resuspended in 480 μl of lysis buffer (0.6% SDS, 10 mM Tris, 1 mM EDTA (pH 7.0)) and after vigorous mixing were allowed to sit on ice for 20 min after addition of 120 μl of 5M NaCl. In caspase 3 and DNA fragmentation assays a milder detergent (Triton) was used to lyse only the plasma membrane of the cells so that cytoplasmic contents (caspase 3 or DNA fragments) could be assayed. Samples were sedimented at 14,000 rpm at 4° C. for 20 min. The pellet was dried and resuspended in phenol:chloroform. Four hundred fifty μl of the upper phase was added to a new tube, which was then charged with 950 μl of […] and held at −20° C. for 10 min. The DNA was sedimented at 14,000 rpm (4° C.) and carefully washed in 75% ethanol without disturbing the pellet. The DNA was dried at 37° C. and then resuspended in 20 μl sample buffer (50% TBE with 1 μl of 1 ng/ml RNase A (Pharmacia)). […]

[3] = summary over all concentrations tested in PCL or PCL-MePEG pellets
[4] = ethylene vinyl acetate films, PBS pH 7.4, 37° C.
[5] = polycaprolactone paste, PBS, 37° C.
[6] = chitosan films, PBS pH 7.4, 37° C.
[7] = poly(L-lactic acid) microspheres, PBS pH 7.4, 37° C.
[8] = triblock copolymer/MePEG paste, PBS pH 7.4 with n-octanol, 37° C.
[9] = polycaprolactone microspheres, PBS pH 7.4, 37° C.

SMILES	proteoglycan expression (proteoglycan gene)	number of eggs (CAM's) with antiangiogenic activity None (score 0) ([1]; 1.0% w/w in PCL pellet)	number of eggs (CAM's) with antiangiogenic activity Partial (score 1-2) ([1]; 1.0% w/w in PCL pellet)	number of eggs (CAM's) with antiangiogenic activity None (score 0) ([1]; 4.0% w/w in PCL pellet)	number of eggs (CAM's) with antiangiogenic activity Partial (score 1-2) ([1]; 4.0% w/w in PCL pellet)	inhibition of angiogenesis in the CAM, in words [1, 3]	drug release profile [2, 4]	drug release profile [2, 5]	cytoplasmic DNA fragments in neutrophils (neutrophils)	number of eggs (CAM's) with antiangiogenic activity Partial (score 1-2) ([1]; 0.5% w/w in PCL pellet)	number of eggs (CAM's) with antiangiogenic activity Partial (score 1-2) ([1]; 5.0% w/w in PCL pellet)	drug release profile [2, 6]	drug release profile [2, 7]	drug release profile [2, 8]	number of eggs (CAM's) with antiangiogenic activity Partial (score 1-2) ([1]; 2.0% w/w in PCL pellet)	drug release profile [2, 9]	further results
CC1(C)CCC2=C(O1)c1ccccc1C(=O)C2=O [beta-lapachone]	without excessive inhibition	4	2	4	11	inhibited angiogenesis in almost all CAM's	initial burst of drug release followed by a slow sustained release	initial burst of drug release followed by a slow sustained release	–	–	–	–	–	–	–	–	number of eggs (CAM's) with antiangiogenic activity Maximal (score 3) ([1]; 4.0% w/w in PCL pellet): 6; inhibition of angiogenesis in the CAM, in words ([1]; 6% w/w in PCL): partial to full inhibition of angiogenesis; number of eggs (CAM's) with antiangiogenic activity Partial (score 1-2) ([1]; 60% in PCL pellet as printed): 10
CC[C@@]1(O)C(=O)OCc2c1cc1n(c2=O)Cc2cc3ccccc3nc2-1 [camptothecin]	–	4	6	–	–	extensive inhibition of angiogenesis	initial burst of drug release followed by a slow sustained release	initial burst of drug release followed by a slow sustained release	increased the cytoplasmic levels of DNA fragments	12	20	initial burst of drug release followed by a slow sustained release	initial burst of drug release followed by a slow sustained release	initial burst of drug release followed by a slow sustained release	–	–	proteoglycan expression (proteoglycan gene; 1×10^−7 M): without excessive inhibition; number of eggs (CAM's) with antiangiogenic activity None (score 0) ([1]; 0.1% w/w in PCL pellet): 7; number of eggs (CAM's) with antiangiogenic activity Partial (score 1-2) ([1]; 0.1% w/w in PCL pellet): 1; inhibition of angiogenesis in the CAM, in words ([1]; 0.5% (w/w to PCL)): strong evidence of inhibition of angiogenesis; number of eggs (CAM's) with antiangiogenic activity Maximal (score 3) ([1]; 0.5% w/w in PCL pellet): 2; number of eggs (CAM's) with antiangiogenic activity None (score 0) ([1]; 0.5% w/w in PCL pellet): 8; number of CAM's with full or partial inhibition ([1]; 5% (w/w to PCL)): 29; number of eggs (CAM's) with antiangiogenic activity Maximal (score 3) ([1]; 5.0% w/w in PCL pellet): 9; number of eggs (CAM's) with antiangiogenic activity None (score 0) ([1]; 5.0% w/w in PCL pellet): 3; effect of addition of MePEG to the PCL on release rate ([2]; 10% and 20% camptothecin loaded PCL paste, 20% MePEG): accelerated the release rate
COc1cccc2c1C(=O)c1c(O)c3c(c(O)c1C2=O)C[C@@](O)(C(=O)CO)C[C@@H]3O[C@H]1C[C@H](N)[C@H](O)[C@H](C)O1 [doxorubicin]	–	–	–	–	4	partially inhibited angiogenesis in all but one CAM	initial burst of drug release followed by a slow sustained release	initial burst of drug release followed by a slow sustained release	significant increase in cytoplasmic DNA	5	3	–	–	–	20	–	number of eggs (CAM's) with antiangiogenic activity None (score 0) ([1]; 2.0% w/w in PCL pellet): 1; inhibition of angiogenesis in the CAM, in words ([1]; 5% (w/w to PCL)): partial to full inhibition of angiogenesis
COc1cc([C@@H]2c3cc4c(cc3[C@@H](O[C@@H]3O[C@@H]5CO[C@@H](C)O[C@H]5[C@H](O)[C@H]3O)[C@H]3COC(=O)[C@H]23)OCO4)cc(OC)c1O [etoposide]	–	–	–	2	5	inhibited angiogenesis in almost all CAM's treated	initial burst of drug release followed by a slow sustained release	initial burst of drug release followed by a slow sustained release	significant increase in cytoplasmic DNA	–	–	–	–	–	–	–	number of eggs (CAM's) with antiangiogenic activity Partial (score 1-2) ([1]; 8.0% w/w in PCL pellet): 5; number of eggs (CAM's) with antiangiogenic activity Maximal (score 3) ([1]; 15.0% w/w in PCL pellet): 4; number of eggs (CAM's) with antiangiogenic activity Partial (score 1-2) ([1]; 15.0% w/w in PCL pellet): 9; number of CAM's showing full inhibition ([1]; all etoposide pellets (4%, 8%, 15% PCL; 10% PCL-MePEG)): five
CC1=CC(=O)c2ccccc2C1=O [menadione]	without excessive inhibition	–	–	–	–	partial inhibition of angiogenesis in a number of CAM's	–	initial burst of drug release followed by a slow sustained release	–	–	–	–	–	–	Necrosis	initial burst of drug release followed by a slow sustained release	generalized cytotoxicity in the CAM ([1]; drug-loaded PCL pellets): some evidence of necrosis in non-capillary cells and membrane thinning
CC1=CC(=O)c2c(O)cccc2C1=O [plumbagin]	–	–	Necrosis	–	–	partial inhibition of angiogenesis in a number of CAM's	initial burst of drug release followed by a slow sustained release	initial burst of drug release followed by a slow sustained release	–	–	–	initial burst of drug release followed by a slow sustained release	initial burst of drug release followed by a slow sustained release	initial burst of drug release followed by a slow sustained release	–	initial burst of drug release followed by a slow sustained release	generalized cytotoxicity in the CAM ([1]; in vivo): some evidence of necrosis in non-capillary cells and membrane thinning
